From patent US20040157268A1, “Conformational assays to detect binding to membrane spanning, signal-transducing proteins” (priority 2001, published 2004)
Values belong to the molecule of their own block, whether it stands above or below them.

Tests used:
FM-β2AR [1] = target: T1, FM-β2AR (Homo sapiens, UniProt P07550); test: Fluorescence intensity of FM-β2AR (fluorescein maleimide at Cys265), time course; settings: ligand added to FM-β2AR, in words
FM-β2AR [2] = target: T1, FM-β2AR; test: Quenching of FM-β2AR fluorescence (KI, oxyl-NHS, nitroxide fatty acids), Stern-Volmer; assay type: biochemical; design: made in house; settings: for quenching constant Ksv (nitroxide fatty acids): total lipid constant with stearic acid, n=3
FM-β2AR [3] = test: as above; assay type: biochemical, human; settings: ISO-induced change in fluorescence with quencher vs without; 250 mM KI vs 250 mM KCl; Oxyl-NHS bound to K224 in TM5; ALP reversal as measure; n=3
FM-β2AR [4] = target: T1, FM-β2AR; test: Fluorescence lifetime analysis of FM-β2AR (frequency domain); assay type: biochemical; design: made in house
Text: Fluorescence lifetime analysis of fluorescein labeled β2AR. […] The instrument covered a wide frequency range (4-5000 MHz), which allowed detection of lifetimes ranging from several nanoseconds to a few picoseconds. Samples were placed in a 10-mm path-length cuvette. The excitation was provided by the frequency-doubled output of a cavity-dumped pyridine-2 dye laser tuned at 370 nm synchronously pumped by a mode-locked argon ion laser. Sample emission was filtered through Corning 3-72 and 4-96 filters.
The governing equations for the time-resolved intensity decay data were assumed to be a sum of discrete exponentials as in I(t)=IoΣiαie^t/τ^i, where I(t) is the intensity decay, αi is the amplitude (pre-exponential factor) and τi is the fluorescence lifetime of the i-th discrete component; or a sum of Gaussian distribution functions as in the equation I(t)=IoΣiαiτe^t/τ and [formula]
In the frequency domain, the measured quantities at each frequency ω, are the phase shift (Øω) and demodulation factor (mω) of the emitted light versus the reference light.
Fractional intensity, amplitude, and lifetime parameters were recovered by a non-linear least squares procedure using the software developed at the Center for Fluorescence Spectroscopy. The measured data were compared with calculated values (Øcω,mcω) and the goodness of fit was characterized by [formula]
where ν is the number of degrees of freedom and δØ and δm are the uncertainties in the measured phase and modulation values, respectively. The sum extends over all frequencies (ω).

[5] = Gaussian lifetime distribution, long component
[6] = Gaussian lifetime distribution, short component
[7] = fit to discrete exponential functions

T1 sequence (P07550 whole entry): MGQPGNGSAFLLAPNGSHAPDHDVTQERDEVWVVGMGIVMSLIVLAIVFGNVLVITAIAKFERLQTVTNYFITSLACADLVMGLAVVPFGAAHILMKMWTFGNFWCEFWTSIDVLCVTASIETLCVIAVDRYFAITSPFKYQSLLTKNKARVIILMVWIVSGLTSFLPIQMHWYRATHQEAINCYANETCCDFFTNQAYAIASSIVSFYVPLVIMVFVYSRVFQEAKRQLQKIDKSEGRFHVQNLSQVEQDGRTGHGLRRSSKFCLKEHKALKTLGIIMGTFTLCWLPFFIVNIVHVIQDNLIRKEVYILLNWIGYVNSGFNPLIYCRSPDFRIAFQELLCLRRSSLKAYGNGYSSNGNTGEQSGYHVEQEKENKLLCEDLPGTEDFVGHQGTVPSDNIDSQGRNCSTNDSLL

SMILES: CNC[C@H](O)c1ccc(O)c(O)c1 [epinephrine]
change in FM-β2AR fluorescence (FM-β2AR [1]): progressively smaller changes

effect on magnitude of the agonist-induced change in fluorescence (FM-β2AR [2]; 100 μM 5-DOX): no significant effect | quenching of baseline fluorescence (FM-β2AR [2]; 100 μM 5-DOX): 12% | quenching constant Ksv (nitroxide fatty acids) (FM-β2AR [2]): 1.4 ± 0.2 mM⁻¹
SMILES: CCCCCCCCCCCCCC1(CCCC(=O)O)OCC(C)(C)N1[O] (stereo not shown) [5-DOX, 5-doxyl stearate]

SMILES: [I-].[K+] [KI, potassium iodide]
% of control ISO response (FM-β2AR [3]): 55.4±8.3%

effect on magnitude of the agonist-induced fluorescence change (FM-β2AR [2]; 50 μM CAT-16): more than two fold | quenching of baseline fluorescence (FM-β2AR [2]; 50 μM CAT-16): ~12% | quenching constant Ksv (nitroxide fatty acids) (FM-β2AR [2]): 2.4 ± 0.1 mM⁻¹
SMILES: CCCCCCCCCCCCCCCC[N+](C)(C)C1CC(C)(C)N([O])C(C)(C)C1.[I-] [CAT-16]

change in FM-β2AR fluorescence (FM-β2AR [1]): progressively smaller changes | FWHMLONG (FM-β2AR [4]; [5]): 0.4±0.4 | τLONG (FM-β2AR [4]; [5]): 4.38±0.01 nsec | FWHMSHORT (FM-β2AR [4]; [6]): 0.9±0.6 | τSHORT (FM-β2AR [4]; [6]): 1.78±0.01 nsec | τ1 (nsec) (FM-β2AR [4]; [7]): 4.36 ± 0.01 nsec | τ2 (nsec) (FM-β2AR [4]; [7]): 1.68 ± 0.3 nsec | α2 (FM-β2AR [4]; fit to discrete exponential functions, fractional contribution of τ2): 0.07 ± 0.01
SMILES: CC(CCc1ccc(O)cc1)NCCc1ccc(O)c(O)c1 (stereo not shown) [DOB, dobutamine]
